biological target: T1, human TLR9 (Homo sapiens, UniProt Q9NR96); assay: TLR9 inhibition reporter assay (HEK-Blue cells, SEAP reporter, ODN2006 stimulation); format: cell-based; conditions: HEK-Blue cells overexpressing human TLR9, ODN2006 5 nM
T1 construct: host or cells: HEK-Blue cells
T1 sequence (Q9NR96 26-1032): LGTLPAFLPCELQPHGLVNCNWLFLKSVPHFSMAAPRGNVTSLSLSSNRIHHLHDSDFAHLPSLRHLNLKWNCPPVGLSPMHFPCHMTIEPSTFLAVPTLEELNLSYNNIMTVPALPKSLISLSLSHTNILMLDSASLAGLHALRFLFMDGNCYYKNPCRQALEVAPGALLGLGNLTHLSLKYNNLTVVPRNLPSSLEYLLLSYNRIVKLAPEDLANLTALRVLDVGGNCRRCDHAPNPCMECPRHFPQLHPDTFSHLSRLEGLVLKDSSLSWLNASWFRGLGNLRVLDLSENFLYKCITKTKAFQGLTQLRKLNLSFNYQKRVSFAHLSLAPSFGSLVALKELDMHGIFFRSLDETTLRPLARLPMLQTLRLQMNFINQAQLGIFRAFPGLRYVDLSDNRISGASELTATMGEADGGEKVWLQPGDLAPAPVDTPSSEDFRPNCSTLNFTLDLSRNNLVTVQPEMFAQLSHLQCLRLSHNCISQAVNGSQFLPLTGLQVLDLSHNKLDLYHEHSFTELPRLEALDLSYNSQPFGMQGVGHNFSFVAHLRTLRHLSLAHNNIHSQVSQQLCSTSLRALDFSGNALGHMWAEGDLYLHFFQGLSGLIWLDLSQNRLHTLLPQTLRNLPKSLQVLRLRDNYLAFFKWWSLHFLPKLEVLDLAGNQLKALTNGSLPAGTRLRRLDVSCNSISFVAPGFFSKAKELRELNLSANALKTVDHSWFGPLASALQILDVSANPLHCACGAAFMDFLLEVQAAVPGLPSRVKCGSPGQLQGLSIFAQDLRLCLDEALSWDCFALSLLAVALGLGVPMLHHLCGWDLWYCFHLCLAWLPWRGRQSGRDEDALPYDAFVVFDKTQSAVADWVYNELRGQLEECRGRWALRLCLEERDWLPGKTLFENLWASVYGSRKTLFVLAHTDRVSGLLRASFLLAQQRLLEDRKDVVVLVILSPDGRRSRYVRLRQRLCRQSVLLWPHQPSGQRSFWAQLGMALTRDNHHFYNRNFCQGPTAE
Outline: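 HEK-Blue cells overexpressing human TLR7, TLR8 or TLR9 carry a SEAP reporter driven by NF-κB/AP-1 sites. Compounds (0.05 nM–50 μM) were preincubated 30 min at room temperature, then cells were stimulated with gardiquimod 7.5 μM (TLR7), R848 15.9 μM (TLR8) or ODN2006 5 nM (TLR9) for 22 h at 37 °C.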

Structure (SMILES)	IC50
COc1ccc(-c2[nH]c3ccc(C4CCN(C(=O)CN5CCC[C@H](C(=O)N6CCN(c7cccc(C(F)(F)F)c7)CC6)C5)CC4)cc3c2C(C)C)cc1OC [Example 290, (S)-1-(4-(2-(3,4-dimethoxyphenyl)-3-isopropyl-1H-indol-5-yl)piperidin-1-yl)-2-(3-(4-(3-(trifluoromethyl)phenyl)piperazine-1-carbonyl)piperidin-1-yl)ethan-1-one]	5.34 µM
COc1ccc(-c2[nH]c3ccc(C4CCN(C(=O)CN[C@@H](CO)CC(C)C)CC4)cc3c2C(C)C)cc1OC [Example 234, (R)-1-(4-(2-(3,4-dimethoxyphenyl)-3-isopropyl-1H-indol-5-yl)piperidin-1-yl)-2-((1-hydroxy-4-methylpentan-2-yl)amino) ethan-1-one]	1.88 µM
COc1ccc(-c2[nH]c3ccc(C4CCN(C(=O)CN5CCC[C@H](C(=O)N6CCC(CCO)CC6)C5)CC4)cc3c2C(C)C)cc1OC [Example 291, (S)-1-(4-(2-(3,4-dimethoxyphenyl)-3-isopropyl-1H-indol-5-yl)piperidin-1-yl)-2-(3-(4-(2-hydroxyethyl)piperidine-1-carbonyl)piperidin-1-yl)ethan-1-one]	2.31 µM
COc1ccc(-c2[nH]c3ccc(C4CCN(CC(=O)N[C@H]5CC[C@H](C(C)(C)O)CC5)CC4)cc3c2C(C)C)cc1OC [Example 279, 2-(4-(2-(3,4-dimethoxyphenyl)-3-isopropyl-1H-indol-5-yl)piperidin-1-yl)-N-((1r,4r)-4-(2-hydroxypropan-2-yl)cyclohexyl)acetamide]	18 µM
COc1ccc(-c2[nH]c3ccc(C4CCN(C(=O)CN5CCC[C@H](C(=O)N6CC[C@H](O)C6)C5)CC4)cc3c2C(C)C)cc1OC [Example 301, 1-(4-(2-(3,4-dimethoxyphenyl)-3-isopropyl-1H-indol-5-yl)piperidin-1-yl)-2-((S)-3-((S)-3-hydroxypyrrolidine-1-carbonyl)piperidin-1-yl)ethan-1-one]	3.12 µM
COc1ccc(-c2[nH]c3ccc(C4CCN(C(=O)CN5CCC[C@H](C(=O)NCC(N)=O)C5)CC4)cc3c2C(C)C)cc1OC [Example 298, (S)—N-(2-amino-2-oxoethyl)-1-(2-(4-(2-(3,4-dimethoxyphenyl)-3-isopropyl-1H-indol-5-yl)piperidin-1-yl)-2-oxoethyl)piperidine-3-carboxamide]	3.94 µM
COc1ccc(-c2[nH]c3ccc(C4CCNCC4O)cc3c2C(C)C)cc1OC (single isomer, unassigned) [Example 318, 4-(2-(3,4-dimethoxyphenyl)-3-isopropyl-1H-indol-5-yl)piperidin-3-ol 2,2,2-trifluoroacetate]	11.2 µM
COc1ccc(-c2[nH]c3ccc(C4CCN(C(=O)CN5CCC[C@@H](C(=O)N6CCC(CCO)CC6)C5)CC4)cc3c2C(C)C)cc1OC [Example 306, (R)-1-(4-(2-(3,4-dimethoxyphenyl)-3-isopropyl-1H-indol-5-yl)piperidin-1-yl)-2-(3-(4-(2-hydroxyethyl)piperidine-1-carbonyl)piperidin-1-yl)ethan-1-one]	2.68 µM
COc1ccc(-c2[nH]c3ccc(C4CCN(Cc5cnc[nH]5)CC4)cc3c2C(C)C)cc1OC [Example 268, 5-(1-((1H-imidazol-5-yl)methyl)piperidin-4-yl)-2-(3,4-dimethoxyphenyl)-3-isopropyl-1H-indole]	1.48 µM
COc1ccc(-c2[nH]c3ccc(C4CCN(CC(=O)N5CC[C@H](O)C5)CC4)cc3c2C(C)C)cc1OC [Example 278, (S)-2-(4-(2-(3,4-dimethoxyphenyl)-3-isopropyl-1H-indol-5-yl)piperidin-1-yl)-1-(3-hydroxypyrrolidin-1-yl)ethan-1-one]	2.87 µM
COc1ccc(-c2[nH]c3ccc(C4CCN(C(=O)CN5CCC(CO)CC5)CC4)cc3c2C(C)C)cc1OC [Example 243, 1-(4-(2-(3,4-dimethoxyphenyl)-3-isopropyl-1H-indol-5-yl)piperidin-1-yl)-2-(4-(hydroxymethyl)piperidin-1-yl)ethan-1-one]	1.51 µM
COc1ccc(-c2[nH]c3ccc(C4CCN(CC(=O)NCCO)CC4)cc3c2C(C)C)cc1OC [Example 276, 2-(4-(2-(3,4-dimethoxyphenyl)-3-isopropyl-1H-indol-5-yl)piperidin-1-yl)-N-(2-hydroxyethyl) acetamide]	3.58 µM

Further lines, results first:

IC50	Structure (SMILES)
0.561 µM	COc1ccc(-c2[nH]c3ccc(C4CCN(C(=O)CN5CCC[C@@H](C(=O)N6CCC(N(C)C)CC6)C5)CC4)cc3c2C(C)C)cc1OC [Example 305, (R)-1-(4-(2-(3,4-dimethoxyphenyl)-3-isopropyl-1H-indol-5-yl)piperidin-1-yl)-2-(3-(4-(dimethylamino)piperidine-1-carbonyl)piperidin-1-yl)ethan-1-one]
0.78 µM	COc1ccc(-c2[nH]c3ccc(C4CCN(C(=O)CN5CCCC(CO)C5)CC4)cc3c2C(C)C)cc1OC (stereo not drawn) [Example 249, 1-(4-(2-(3,4-dimethoxyphenyl)-3-isopropyl-1H-indol-5-yl)piperidin-1-yl)-2-(3-(hydroxymethyl)piperidin-1-yl)ethan-1-one]
0.777 µM	COc1ccc(-c2[nH]c3ccc(C4CCN(C(=O)CN5CCC[C@H](C(=O)N6CCN(CCN7CCCC7)CC6)C5)CC4)cc3c2C(C)C)cc1OC [Example 293, (S)-1-(4-(2-(3,4-dimethoxyphenyl)-3-isopropyl-1H-indol-5-yl)piperidin-1-yl)-2-(3-(4-(2-(pyrrolidin-1-yl)ethyl)piperazine-1-carbonyl)piperidin-1-yl)ethan-1-one]
1.44 µM	COc1ccc(-c2[nH]c3ccc(C4CCN(Cc5cncn5C)CC4)cc3c2C(C)C)cc1OC [Example 258, 2-(3,4-dimethoxyphenyl)-3-isopropyl-5-(1-((1-methyl-1H-imidazol-5-yl)methyl)piperidin-4-yl)-1H-indole]
0.664 µM	COc1ccc(-c2[nH]c3ccc(C4CCN(C(=O)CNC5CCC(O)CC5)CC4)cc3c2C(C)C)cc1OC (stereo not drawn) [Example 246, 1-(4-(2-(3,4-dimethoxyphenyl)-3-isopropyl-1H-indol-5-yl)piperidin-1-yl)-2-((4-hydroxycyclohexyl)amino)ethan-1-one]
0.083 µM	COc1ccc(-c2[nH]c3ccc(C4CCN(C5C[C@H]6CC[C@@H](C5)N6C)CC4)cc3c2C)cc1OC (stereo partly drawn) [Example 21, 2-(3,4-dimethoxyphenyl)-3-methyl-5-(1-((1R,5S)-8-methyl-8-azabicyclo[3.2.1]octan-3-yl)piperidin-4-yl)-1H-indole]
1.42 µM	COc1ccc(-c2[nH]c3ccc(C4CCN(C(=O)CN5CCCC(CO)C5)CC4)cc3c2C(C)C)cc1OC (stereo not drawn) [Example 226, 1-(4-(2-(3,4-dimethoxyphenyl)-3-isopropyl-1H-indol-5-yl)piperidin-1-yl)-2-(3-(hydroxymethyl)piperidin-1-yl)ethan-1-one]
0.603 µM	COc1ccc(-c2[nH]c3ccc(C4CCN(C(=O)CN5CCC[C@H](C(=O)N6CCN(C(C)C)CC6)C5)CC4)cc3c2C(C)C)cc1OC [Example 286, (S)-1-(4-(2-(3,4-dimethoxyphenyl)-3-isopropyl-1H-indol-5-yl)piperidin-1-yl)-2-(3-(4-isopropylpiperazine-1-carbonyl)piperidin-1-yl)ethan-1-one]
0.516 µM	COc1ccc(-c2[nH]c3ccc(C4CCN(C(=O)CN5CCCN(C)CC5)CC4)cc3c2C(C)C)cc1OC [Example 239, 1-(4-(2-(3,4-dimethoxyphenyl)-3-isopropyl-1H-indol-5-yl)piperidin-1-yl)-2-(4-methyl-1,4-diazepan-1-yl)ethan-1-one]
0.571 µM	COc1ccc(-c2[nH]c3ccc(C4CCN(C(=O)CN5CCC(N6CCN(C)CC6)CC5)CC4)cc3c2C(C)C)cc1OC [Example 241, 1-(4-(2-(3,4-dimethoxyphenyl)-3-isopropyl-1H-indol-5-yl)piperidin-1-yl)-2-(4-(4-methylpiperazin-1-yl)piperidin-1-yl)ethan-1-one]
0.154 µM	COc1ccc(-c2[nH]c3ccc(C4CCN(C5CCN(C6CC6)CC5)CC4)cc3c2C)cc1OC [Example 23, 5-(1′-cyclopropyl-[1,4′-bipiperidin]-4-yl)-2-(3,4-dimethoxyphenyl)-3-methyl-1H-indole]
0.565 µM	COc1ccc(-c2[nH]c3ccc(C4CCN(CC(=O)NC5CCN(C(C)C)CC5)CC4)cc3c2C(C)C)cc1OC [Example 273, 2-(4-(2-(3,4-dimethoxyphenyl)-3-isopropyl-1H-indol-5-yl)piperidin-1-yl)-N-(1-isopropylpiperidin-4-yl)acetamide]
